± gives the expanded uncertainty stated by the source.
Settings: 101.33 kPa, Liquid; for viscosity: Concentric cylinders viscometry; for mass density: Vibrating tube method

Row | SMILES | viscosity (283.15 K) [mPa·s] | mass density (283.15 K) [kg/m3] | viscosity (288.15 K) [mPa·s] | mass density (288.15 K) [kg/m3] | viscosity (293.15 K) [mPa·s] | mass density (293.15 K) [kg/m3] | viscosity (298.15 K) [mPa·s] | mass density (298.15 K) [kg/m3] | viscosity (303.15 K) [mPa·s] | mass density (303.15 K) [kg/m3] | viscosity (308.15 K) [mPa·s] | mass density (308.15 K) [kg/m3] | viscosity (313.15 K) [mPa·s] | mass density (313.15 K) [kg/m3] | viscosity (318.15 K) [mPa·s] | mass density (318.15 K) [kg/m3] | viscosity (323.15 K) [mPa·s] | mass density (323.15 K) [kg/m3] | viscosity (328.15 K) [mPa·s] | mass density (328.15 K) [kg/m3] | other results
1 | CCCCCCCC/C=C\CCCCCCCC(=O)OC [methyl cis-9-octadecenoate] | 8.699 ± 0.081 | 881.4 ± 1 | 7.452 ± 0.069 | 877.7 ± 1 | 6.45 ± 0.06 | 874.1 ± 1 | 5.634 ± 0.053 | 870.4 ± 1 | 4.961 ± 0.046 | 866.8 ± 1 | 4.401 ± 0.041 | 863.1 ± 1 | 3.93 ± 0.037 | 859.5 ± 1 | 3.531 ± 0.033 | 855.9 ± 1 | 3.189 ± 0.03 | 852.3 ± 1 | 2.894 ± 0.028 | 848.7 ± 1 | viscosity (333.15 K): 2.638 ± 0.025 mPa·s; mass density (333.15 K): 845.1 ± 1 kg/m3; viscosity (338.15 K): 2.416 ± 0.023 mPa·s; mass density (338.15 K): 841.5 ± 1 kg/m3; viscosity (343.15 K): 2.222 ± 0.022 mPa·s; mass density (343.15 K): 837.9 ± 1 kg/m3; viscosity (348.15 K): 2.05 ± 0.02 mPa·s; mass density (348.15 K): 834.3 ± 1 kg/m3; viscosity (353.15 K): 1.897 ± 0.019 mPa·s; mass density (353.15 K): 830.7 ± 1 kg/m3
2 | CCCCCCCCCC(=O)OC [methyl decanoate] | 2.654 ± 0.025 | 880.6 ± 1 | 2.373 ± 0.023 | 876.4 ± 1 | 2.136 ± 0.021 | 872.3 ± 1 | 1.933 ± 0.019 | 868.2 ± 1 | 1.76 ± 0.017 | 864.1 ± 1 | 1.609 ± 0.016 | 860 ± 1 | 1.477 ± 0.015 | 856 ± 1 | 1.361 ± 0.014 | 851.9 ± 1 | 1.259 ± 0.013 | 847.8 ± 1 | 1.167 ± 0.012 | 843.6 ± 1 | viscosity (278.15 K): 2.989 ± 0.029 mPa·s; mass density (278.15 K): 884.7 ± 1 kg/m3; viscosity (333.15 K): 1.086 ± 0.011 mPa·s; mass density (333.15 K): 839.5 ± 1 kg/m3; viscosity (338.15 K): 1.013 ± 0.011 mPa·s; mass density (338.15 K): 835.3 ± 1 kg/m3; viscosity (343.15 K): 0.9477 ± 0.01 mPa·s; mass density (343.15 K): 831.2 ± 1 kg/m3; viscosity (348.15 K): 0.8886 ± 0.0098 mPa·s; mass density (348.15 K): 827 ± 1 kg/m3; viscosity (353.15 K): 0.8342 ± 0.0093 mPa·s; mass density (353.15 K): 822.9 ± 1 kg/m3; viscosity (358.15 K): 0.786 ± 0.0089 mPa·s; mass density (358.15 K): 818.7 ± 1 kg/m3; viscosity (363.15 K): 0.7421 ± 0.0085 mPa·s; mass density (363.15 K): 814.5 ± 1 kg/m3
3 | CCCCCCCCCCCC(=O)OC [methyl dodecanoate] | 4.068 ± 0.052 | 877.7 ± 1.2 | 3.577 ± 0.046 | 873.7 ± 1.2 | 3.167 ± 0.041 | 869.8 ± 1.2 | 2.824 ± 0.036 | 865.8 ± 1.2 | 2.536 ± 0.033 | 861.8 ± 1.2 | 2.289 ± 0.03 | 857.9 ± 1.2 | 2.078 ± 0.027 | 853.9 ± 1.2 | 1.894 ± 0.025 | 850 ± 1.2 | 1.735 ± 0.023 | 846.1 ± 1.2 | 1.595 ± 0.021 | 842.1 ± 1.2 | viscosity (333.15 K): 1.471 ± 0.02 mPa·s; mass density (333.15 K): 838.1 ± 1.2 kg/m3; viscosity (338.15 K): 1.362 ± 0.018 mPa·s; mass density (338.15 K): 834.2 ± 1.2 kg/m3; viscosity (343.15 K): 1.265 ± 0.017 mPa·s; mass density (343.15 K): 830.2 ± 1.2 kg/m3; viscosity (348.15 K): 1.178 ± 0.016 mPa·s; mass density (348.15 K): 826.2 ± 1.2 kg/m3; viscosity (353.15 K): 1.1 ± 0.015 mPa·s; mass density (353.15 K): 822.3 ± 1.2 kg/m3
